Values of other authors in paper PMC7767166, “Imidazole and Imidazolium Antibacterial Drugs Derived from Amino Acids” (Pharmaceuticals, 2020).
Marks after values point to notes of the source that are not given here.

What was measured:
[1] = system: B. subtilis; parameters: method as in PMID 26777771; conditions: cited from earlier work
[2] = system: MRC-5 cells; parameters: method as in PMID 19407848; conditions: cited from earlier work

Substance: Alamethicin
- B. subtilis MIC [1]: 16 µg/mL
- IC50 (cytotoxicity against MRC-5 cells) [2]: 62.5 ^f [42] μg/mL
